Experimental data taken from PubChem BioAssay (NCI).
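1) Cells in 96-well plates. 2) Compound, 48 h, 5 concentrations. 3) Linear interpolation between surrounding doses. 4) Unreached endpoint = highest concentration. TGI: total growth inhibition.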

Tests used:
Assay in all cases: DTP human tumour cell line panel, 48 h
NCI-H460 lung = tested on: NCI-H460 lung
UACC-257 melanoma = tested on: UACC-257 melanoma
CCRF-CEM leukemia = tested on: CCRF-CEM leukemia
PC-3 prostate = tested on: PC-3 prostate
HS 578T breast = tested on: HS 578T breast
UO-31 renal = tested on: UO-31 renal
SR leukemia = tested on: SR leukemia
HCT-15 colon = tested on: HCT-15 colon
LOX IMVI melanoma = tested on: LOX IMVI melanoma
OVCAR-5 ovarian = tested on: OVCAR-5 ovarian
MOLT-4 leukemia = tested on: MOLT-4 leukemia
RPMI-8226 leukemia = tested on: RPMI-8226 leukemia
NCI-H226 lung = tested on: NCI-H226 lung
HOP-92 NSCLC = tested on: HOP-92 NSCLC
KM12 colon = tested on: KM12 colon
T-47D breast = tested on: T-47D breast
IGROV1 ovarian = tested on: IGROV1 ovarian
786-0 renal = tested on: 786-0 renal
HCT-116 colon = tested on: HCT-116 colon
EKVX NSCLC = tested on: EKVX NSCLC
U251 CNS = tested on: U251 CNS
NCI-H522 lung = tested on: NCI-H522 lung
HL-60(TB) leukemia = tested on: HL-60(TB) leukemia
MDA-MB-231 breast = tested on: MDA-MB-231 breast
HOP-62 NSCLC = tested on: HOP-62 NSCLC
SK-MEL-28 melanoma = tested on: SK-MEL-28 melanoma
SF-268 CNS = tested on: SF-268 CNS
DU-145 prostate = tested on: DU-145 prostate
SK-OV-3 ovarian = tested on: SK-OV-3 ovarian
SF-539 CNS = tested on: SF-539 CNS
M14 melanoma = tested on: M14 melanoma
HCC-2998 colon = tested on: HCC-2998 colon
MDA-MB-435 = tested on: MDA-MB-435
SK-MEL-5 melanoma = tested on: SK-MEL-5 melanoma
OVCAR-3 ovarian = tested on: OVCAR-3 ovarian
SW-620 colon = tested on: SW-620 colon
CAKI-1 renal = tested on: CAKI-1 renal
NCI-H23 lung = tested on: NCI-H23 lung
HT29 colon = tested on: HT29 colon
MDA-N = tested on: MDA-N
SNB-75 CNS = tested on: SNB-75 CNS
TK-10 renal = tested on: TK-10 renal
SN12C renal = tested on: SN12C renal
SK-MEL-2 melanoma = tested on: SK-MEL-2 melanoma
OVCAR-4 ovarian = tested on: OVCAR-4 ovarian
UACC-62 melanoma = tested on: UACC-62 melanoma
NCI/ADR-RES ovarian = tested on: NCI/ADR-RES ovarian
COLO 205 colon = tested on: COLO 205 colon
MCF7 breast = tested on: MCF7 breast
SNB-19 CNS = tested on: SNB-19 CNS
SF-295 CNS = tested on: SF-295 CNS
MALME-3M melanoma = tested on: MALME-3M melanoma
A498 renal = tested on: A498 renal
K-562 leukemia = tested on: K-562 leukemia
A549 NSCLC = tested on: A549 NSCLC
OVCAR-8 ovarian = tested on: OVCAR-8 ovarian
ACHN renal = tested on: ACHN renal
RXF 393 renal = tested on: RXF 393 renal

Compound: C/C(=N\NC(=S)NCc1ccccc1)c1nc2ncccc2[nH]1
- TGI (NCI-H460 lung): 27.6 µM
- TGI (UACC-257 melanoma): 22.1 µM
- TGI (CCRF-CEM leukemia): 19.2 µM
- TGI (PC-3 prostate): 50.2 µM
- TGI (HS 578T breast): > 100 µM
- TGI (UO-31 renal): 11 µM
- TGI (SR leukemia): > 100 µM
- TGI (HCT-15 colon): 37.2 µM
- TGI (LOX IMVI melanoma): 21.4 µM
- TGI (OVCAR-5 ovarian): 30.2 µM
- TGI (MOLT-4 leukemia): 17.5 µM
- TGI (RPMI-8226 leukemia): 59.9 µM
- TGI (NCI-H226 lung): 20.8 µM
- TGI (HOP-92 NSCLC): 22.5 µM
- TGI (KM12 colon): 21.5 µM
- TGI (T-47D breast): 43.3 µM
- TGI (IGROV1 ovarian): 34.1 µM
- TGI (786-0 renal): > 100 µM
- TGI (HCT-116 colon): 17.3 µM
- TGI (EKVX NSCLC): 8.51 µM
- TGI (U251 CNS): 19.4 µM
- TGI (NCI-H522 lung): 32 µM
- TGI (HL-60(TB) leukemia): > 100 µM
- TGI (MDA-MB-231 breast): 90.2 µM
- TGI (HOP-62 NSCLC): 26.2 µM
- TGI (SK-MEL-28 melanoma): 37.4 µM
- TGI (SF-268 CNS): 65.6 µM
- TGI (DU-145 prostate): 24.5 µM
- TGI (SK-OV-3 ovarian): > 100 µM
- TGI (SF-539 CNS): 20.8 µM
- TGI (M14 melanoma): 19.8 µM
- TGI (HCC-2998 colon): 68.4 µM
- TGI (MDA-MB-435): 33.5 µM
- TGI (SK-MEL-5 melanoma): 14.6 µM
- TGI (OVCAR-3 ovarian): 39.8 µM
- TGI (SW-620 colon): > 100 µM
- TGI (CAKI-1 renal): 61.2 µM
- TGI (NCI-H23 lung): 40.8 µM
- TGI (HT29 colon): 12.8 µM
- TGI (MDA-N): 26.8 µM
- TGI (SNB-75 CNS): 49 µM
- TGI (TK-10 renal): 73.4 µM
- TGI (SN12C renal): > 100 µM
- TGI (SK-MEL-2 melanoma): 36 µM
- TGI (OVCAR-4 ovarian): 83 µM
- TGI (UACC-62 melanoma): 27.1 µM
- TGI (NCI/ADR-RES ovarian): 78.8 µM
- TGI (COLO 205 colon): 34.4 µM
- TGI (MCF7 breast): 16.2 µM
- TGI (SNB-19 CNS): 50.2 µM
- TGI (SF-295 CNS): 22.8 µM
- TGI (MALME-3M melanoma): 34.6 µM
- TGI (A498 renal): 50 µM
- TGI (K-562 leukemia): 41.5 µM
- TGI (A549 NSCLC): > 100 µM
- TGI (OVCAR-8 ovarian): 26.8 µM
- TGI (ACHN renal): 52.9 µM

Compound: CCN(CC)CCN(C(=O)c1ccc(F)cc1)c1ccccc1N
- TGI (NCI-H460 lung): > 10 µM
- TGI (CCRF-CEM leukemia): > 10 µM
- TGI (PC-3 prostate): > 10 µM
- TGI (HS 578T breast): > 10 µM
- TGI (UO-31 renal): > 10 µM
- TGI (SR leukemia): > 10 µM
- TGI (HCT-15 colon): > 10 µM
- TGI (LOX IMVI melanoma): > 10 µM
- TGI (OVCAR-5 ovarian): > 10 µM
- TGI (MOLT-4 leukemia): > 10 µM
- TGI (RPMI-8226 leukemia): > 10 µM
- TGI (NCI-H226 lung): > 10 µM
- TGI (KM12 colon): > 10 µM
- TGI (T-47D breast): > 10 µM
- TGI (IGROV1 ovarian): > 10 µM
- TGI (HCT-116 colon): > 10 µM
- TGI (EKVX NSCLC): > 10 µM
- TGI (U251 CNS): > 10 µM
- TGI (NCI-H522 lung): > 10 µM
- TGI (HL-60(TB) leukemia): > 10 µM
- TGI (MDA-MB-231 breast): > 10 µM
- TGI (HOP-62 NSCLC): > 10 µM
- TGI (SK-MEL-28 melanoma): > 10 µM
- TGI (SF-268 CNS): > 10 µM
- TGI (DU-145 prostate): > 10 µM
- TGI (SK-OV-3 ovarian): > 10 µM
- TGI (SF-539 CNS): > 10 µM
- TGI (M14 melanoma): > 10 µM
- TGI (HCC-2998 colon): > 10 µM
- TGI (MDA-MB-435): > 10 µM
- TGI (SK-MEL-5 melanoma): > 10 µM
- TGI (OVCAR-3 ovarian): > 10 µM
- TGI (SW-620 colon): > 10 µM
- TGI (CAKI-1 renal): > 10 µM
- TGI (NCI-H23 lung): > 10 µM
- TGI (HT29 colon): > 10 µM
- TGI (MDA-N): > 10 µM
- TGI (SNB-75 CNS): > 10 µM
- TGI (TK-10 renal): > 10 µM
- TGI (SN12C renal): > 10 µM
- TGI (SK-MEL-2 melanoma): > 10 µM
- TGI (OVCAR-4 ovarian): > 10 µM
- TGI (UACC-62 melanoma): > 10 µM
- TGI (NCI/ADR-RES ovarian): > 10 µM
- TGI (COLO 205 colon): > 10 µM
- TGI (MCF7 breast): > 10 µM
- TGI (SNB-19 CNS): > 10 µM
- TGI (SF-295 CNS): > 10 µM
- TGI (MALME-3M melanoma): > 10 µM
- TGI (A498 renal): > 10 µM
- TGI (RXF 393 renal): > 10 µM
- TGI (K-562 leukemia): > 10 µM
- TGI (A549 NSCLC): > 10 µM
- TGI (OVCAR-8 ovarian): > 10 µM
- TGI (ACHN renal): > 10 µM
